Experiments:
Type in all cases: functional
Bemisia tabaci [1] = test: Insecticidal activity against Bemisia tabaci Bupro-SEL (sweet potato whitefly) from 20 generation buprofezin resistance assessed as mortality measured after 18 to 20 days
Bemisia tabaci [2] = test: Insecticidal activity against Bemisia tabaci Bupro-SEL (sweet potato whitefly) from 10 generation buprofezin resistance assessed as mortality measured after 18 to 20 days
Bemisia tabaci [3] = test: Insecticidal activity against Bemisia tabaci UNSEL G11 (sweet potato whitefly) from 11 generation buprofezin resistance assessed as mortality measured after 18 to 20 days
Bemisia tabaci [4] = test: Insecticidal activity against Bemisia tabaci (sweet potato whitefly) from one generation buprofezin resistance G1 assessed as mortality measured after 18 to 20 days
Bemisia tabaci [5] = test: Insecticidal activity against Bemisia tabaci (sweet potato whitefly) susceptible Lab-PK assessed as mortality measured after 18 to 20 days
Bemisia tabaci [6] = test: Insecticidal activity against Bemisia tabaci F1 (sweet potato whitefly) pooled/Bupro-SEL hybrid assessed as mortality measured after 18 to 20 days
Bemisia tabaci [7] = test: Insecticidal activity against Bemisia tabaci F1 (sweet potato whitefly) pooled assessed as mortality measured after 18 to 20 days
Bemisia tabaci [8] = test: Insecticidal activity against Bemisia tabaci Bupro-SEL (sweet potato whitefly) male/Lab-PK female hybrid assessed as mortality measured after 18 to 20 days
Bemisia tabaci [9] = test: Insecticidal activity against Bemisia tabaci Bupro-SEL (sweet potato whitefly) female/Lab-PK male hybrid assessed as mortality measured after 18 to 20 days

Compound: C/C(=N\C#N)N(C)Cc1ccc(Cl)nc1 [ACETAMIPRID]
- LC50 (Bemisia tabaci [1]): 0.4 ugAi/ml
- LC50 (Bemisia tabaci [2]): 4.04 ugAi/ml
- LC50 (Bemisia tabaci [3]): 0.36 ugAi/ml
- LC50 (Bemisia tabaci [4]): 2.21 ugAi/ml
- LC50 (Bemisia tabaci [5]): 0.39 ugAi/ml

Compound: CC(C)N1C(=O)N(c2ccccc2)CS/C1=N\C(C)(C)C [BUPROFEZIN]
- LC50 (Bemisia tabaci [6]): 62.6 ugAi/ml
- LC50 (Bemisia tabaci [7]): 4.86 ugAi/ml
- LC50 (Bemisia tabaci [8]): 4.41 ugAi/ml
- LC50 (Bemisia tabaci [9]): 5.11 ugAi/ml
- LC50 (Bemisia tabaci [1]): 115.2 ugAi/ml
- LC50 (Bemisia tabaci [2]): 1400 ugAi/ml
- LC50 (Bemisia tabaci [3]): 0.25 ugAi/ml
- LC50 (Bemisia tabaci [4]): 1.41 ugAi/ml
- LC50 (Bemisia tabaci [5]): 0.2 ugAi/ml

Compound: O=[N+]([O-])/N=C1\NCCN1Cc1ccc(Cl)nc1 [IMIDACLOPRID]
- LC50 (Bemisia tabaci [1]): 0.17 ugAi/ml
- LC50 (Bemisia tabaci [2]): 2.18 ugAi/ml
- LC50 (Bemisia tabaci [3]): 0.2 ugAi/ml
- LC50 (Bemisia tabaci [4]): 1.29 ugAi/ml
- LC50 (Bemisia tabaci [5]): 0.09 ugAi/ml

Compound: CC(COc1ccc(Oc2ccccc2)cc1)Oc1ccccn1 (centres undefined) [PYRIPROXYFEN]
- LC50 (Bemisia tabaci [1]): 1.63 ugAi/ml
- LC50 (Bemisia tabaci [2]): 51.54 ugAi/ml
- LC50 (Bemisia tabaci [3]): 0.52 ugAi/ml
- LC50 (Bemisia tabaci [4]): 1.81 ugAi/ml
- LC50 (Bemisia tabaci [5]): 0.6 ugAi/ml

Compound: CCOC(=O)OC1=C(c2cc(C)ccc2C)C(=O)N[C@]12CC[C@@H](OC)CC2 [SPIROTETRAMAT]
- LC50 (Bemisia tabaci [1]): 0.11 ugAi/ml
- LC50 (Bemisia tabaci [2]): 1.04 ugAi/ml
- LC50 (Bemisia tabaci [3]): 0.1 ugAi/ml
- LC50 (Bemisia tabaci [4]): 0.7 ugAi/ml
- LC50 (Bemisia tabaci [5]): 0.17 ugAi/ml

Source: ChEMBL document CHEMBL3046142, “Cross resistance, genetic analysis and stability of resistance to buprofezin in cotton whitefly, Bemisia tabaci (Homoptera: Aleyrodidae)” (2012)
